In assay [1] the target is T1, Neuropeptide Y receptor type 1 (Homo sapiens, UniProt P25929).
T1 sequence (P25929 whole entry): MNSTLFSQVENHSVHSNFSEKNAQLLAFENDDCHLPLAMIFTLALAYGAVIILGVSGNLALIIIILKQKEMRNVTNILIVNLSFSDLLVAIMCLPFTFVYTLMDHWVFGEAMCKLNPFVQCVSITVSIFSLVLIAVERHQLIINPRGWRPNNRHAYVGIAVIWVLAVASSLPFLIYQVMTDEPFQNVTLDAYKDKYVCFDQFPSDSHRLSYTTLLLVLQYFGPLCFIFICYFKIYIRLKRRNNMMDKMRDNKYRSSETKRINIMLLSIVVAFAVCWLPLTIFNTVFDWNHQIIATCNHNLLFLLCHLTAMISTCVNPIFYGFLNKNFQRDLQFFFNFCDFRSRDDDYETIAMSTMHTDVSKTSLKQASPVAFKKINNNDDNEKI
Briefly: Fluorescence-based dose response cell-based high-throughput screening assay for agonists of NPY-Y1. [Related pubchem assays: 1697 (Screening assay (NPY-Y1 agonists).), 1359 (Screening assay (NPY-Y2 potentiators or agonists).), 1304 (Screening assay (NPY-Y1 potentiators or agonists).), 1704 (Screening assay (CNGC inhibitors).), 1791 (Summary AID.)]. Format: functional.

Assay [2] addresses T2, Neuropeptide Y receptor type 2 (Homo sapiens, UniProt P49146).
T2 sequence (P49146 whole entry): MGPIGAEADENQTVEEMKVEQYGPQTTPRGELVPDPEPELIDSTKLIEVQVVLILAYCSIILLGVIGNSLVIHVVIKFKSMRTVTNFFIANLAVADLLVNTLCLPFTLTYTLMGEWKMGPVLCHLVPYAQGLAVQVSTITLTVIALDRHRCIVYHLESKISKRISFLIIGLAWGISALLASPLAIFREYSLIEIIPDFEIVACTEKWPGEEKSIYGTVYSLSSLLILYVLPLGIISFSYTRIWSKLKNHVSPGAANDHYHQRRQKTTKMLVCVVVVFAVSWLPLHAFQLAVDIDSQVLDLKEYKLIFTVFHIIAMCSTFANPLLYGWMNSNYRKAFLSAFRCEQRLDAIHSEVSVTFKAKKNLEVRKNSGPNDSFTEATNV
The assay is described as follows: Fluorescence-based counterscreen for agonists of NPY-Y1: cell-based high-throughput dose response assay for agonists of NPY-Y2. The class given is functional.

The target in assay [3] is T3, Endoribonuclease toxin MazF (Escherichia coli K-12, UniProt P0AE70).
T3 sequence (P0AE70 whole entry): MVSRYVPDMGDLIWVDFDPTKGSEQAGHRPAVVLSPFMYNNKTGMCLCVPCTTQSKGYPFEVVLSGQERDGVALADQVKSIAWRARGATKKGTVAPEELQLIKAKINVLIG
The assay is described as follows: activation of MazEF endoribonuclease cleavage – biochemical, fluorescence, single-stranded RNA substrate, uHTS hits, dose response (AID 588481). Format: functional.

Another assay relates to MEF. Briefly: SAR analysis of small molecule cytotoxicity of MazEF TA System activators in embryonic fibroblast (MEF) cells. [Related pubchem assays (depositor defined):AID504720, AID504743]. The conditions noted are these: Mus musculus. The class given is functional.
A further assay has as its system HEK293. Briefly: Fluorescence-based counterscreen for potentiators or agonists of NPY-Y1: cell-based high-throughput dose response assay for inhibitors of cyclic nucleotide gated ion channel (CNGC) activity. In this assay, the parental HEK293 cell line transfected with a cyclic-nucleotide gated ion channel (CNGC)-based cAMP sensor is used to measure inhibition of isoproterenol-induced CNGC …. The class given is functional. The following applies: Homo sapiens. A general note: The purpose of a counterscreen is to sort out artefacts and off-target activity.

Assay [4] has as its target T3, Endoribonuclease toxin MazF. The assay is described as follows: SAR analysis of small molecule activators of the MazEF TA System via a fluorescence-based single-stranded RNase assay counterscreen. [Related pubchem assays (depositor defined):AID504720, AID504743]. Format: functional.
Assay [5] shares this target. Briefly: substrate-only fluorescence increase artefacts – biochemical, single-stranded RNase substrate, counter-screen for MazEF activator project, dose response (AID 588502). The class given is functional.
The target is the same in assay [6]. Briefly: MazEF toxin-antitoxin RNase activation – biochemical, fluorescence, single-stranded RNA substrate, SAR follow-up (AID 588603). The class given is functional.
Assay [7] is described as follows: viability loss in HeLa cells – cytotoxicity control for MgcRacGAP inhibitor project, dose response (AID 624300). Format: functional.
For the next assay, the target named is DNA topoisomerase (Yersinia pestis, UniProt A0A2S9PM60). The assay is described as follows: Yersinia topoisomerase I cleavage product accumulation – biochemical, cherry-pick, dose response (AID 588525).
Assay [8] deals with T4, Rac GTPase-activating protein 1 (Homo sapiens, UniProt Q9H0H5).
T4 sequence (Q9H0H5 whole entry): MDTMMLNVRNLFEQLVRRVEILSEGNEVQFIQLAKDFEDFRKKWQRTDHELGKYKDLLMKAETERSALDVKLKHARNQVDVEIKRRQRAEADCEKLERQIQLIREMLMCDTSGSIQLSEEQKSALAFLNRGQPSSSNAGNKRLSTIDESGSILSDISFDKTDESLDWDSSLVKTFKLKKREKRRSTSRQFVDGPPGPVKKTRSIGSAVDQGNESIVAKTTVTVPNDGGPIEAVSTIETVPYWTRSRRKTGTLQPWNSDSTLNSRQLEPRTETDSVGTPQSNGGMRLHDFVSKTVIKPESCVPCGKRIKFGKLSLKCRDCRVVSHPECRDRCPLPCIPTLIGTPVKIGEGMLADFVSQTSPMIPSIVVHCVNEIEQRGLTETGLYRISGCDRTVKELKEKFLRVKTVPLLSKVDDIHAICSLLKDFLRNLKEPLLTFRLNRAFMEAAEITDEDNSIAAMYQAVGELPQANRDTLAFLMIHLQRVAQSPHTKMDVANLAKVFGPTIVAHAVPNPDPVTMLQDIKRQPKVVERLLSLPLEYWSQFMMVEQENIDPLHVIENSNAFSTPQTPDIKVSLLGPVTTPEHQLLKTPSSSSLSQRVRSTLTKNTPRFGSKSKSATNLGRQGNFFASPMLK
The assay is described as follows: blockers of MgcRacGAP-driven Rac1 GTP hydrolysis – biochemical, ADP Hunter fluorescence, primary and confirmatory, confirmation (AID 624330). The class given is functional.

Assay [9] addresses T5, Histone-lysine N-methyltransferase NSD2 (Homo sapiens, UniProt O96028).
T5 sequence (O96028 whole entry): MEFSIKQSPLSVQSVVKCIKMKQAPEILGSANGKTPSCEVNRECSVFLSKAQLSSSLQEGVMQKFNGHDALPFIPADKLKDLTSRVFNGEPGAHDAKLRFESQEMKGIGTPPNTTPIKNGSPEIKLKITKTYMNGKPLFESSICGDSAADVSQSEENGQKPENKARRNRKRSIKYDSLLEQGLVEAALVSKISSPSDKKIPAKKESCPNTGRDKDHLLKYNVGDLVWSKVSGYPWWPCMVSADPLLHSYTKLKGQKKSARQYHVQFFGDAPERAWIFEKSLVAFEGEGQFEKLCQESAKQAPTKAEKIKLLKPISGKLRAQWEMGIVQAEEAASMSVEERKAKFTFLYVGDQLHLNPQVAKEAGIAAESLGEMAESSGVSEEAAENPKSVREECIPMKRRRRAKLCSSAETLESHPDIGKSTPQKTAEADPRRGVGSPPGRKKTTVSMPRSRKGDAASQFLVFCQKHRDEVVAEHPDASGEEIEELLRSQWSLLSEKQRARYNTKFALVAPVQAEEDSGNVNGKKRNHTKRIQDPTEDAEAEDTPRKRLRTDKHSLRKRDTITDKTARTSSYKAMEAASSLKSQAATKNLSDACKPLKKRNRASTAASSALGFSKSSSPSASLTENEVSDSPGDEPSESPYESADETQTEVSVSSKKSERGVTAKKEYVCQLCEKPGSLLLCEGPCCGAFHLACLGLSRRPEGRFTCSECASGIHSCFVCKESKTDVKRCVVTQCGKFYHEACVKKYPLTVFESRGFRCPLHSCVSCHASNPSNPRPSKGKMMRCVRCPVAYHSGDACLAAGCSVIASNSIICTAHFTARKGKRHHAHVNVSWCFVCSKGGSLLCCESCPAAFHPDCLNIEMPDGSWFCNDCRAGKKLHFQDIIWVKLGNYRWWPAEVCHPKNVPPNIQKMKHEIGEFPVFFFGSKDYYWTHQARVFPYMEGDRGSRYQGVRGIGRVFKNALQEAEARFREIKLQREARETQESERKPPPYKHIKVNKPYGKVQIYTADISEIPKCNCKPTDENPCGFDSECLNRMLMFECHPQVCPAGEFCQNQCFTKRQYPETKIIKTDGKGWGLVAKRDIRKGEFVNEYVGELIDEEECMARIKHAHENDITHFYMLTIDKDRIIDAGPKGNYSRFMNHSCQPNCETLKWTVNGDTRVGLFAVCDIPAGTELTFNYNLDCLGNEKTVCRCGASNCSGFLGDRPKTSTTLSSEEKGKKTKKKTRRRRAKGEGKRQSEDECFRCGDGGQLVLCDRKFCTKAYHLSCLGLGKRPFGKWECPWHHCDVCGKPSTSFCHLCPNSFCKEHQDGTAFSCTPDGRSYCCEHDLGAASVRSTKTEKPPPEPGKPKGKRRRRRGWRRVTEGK
The class given is biochemical.

The target of the next assay is Nonstructural protein 1 (Influenza A virus, UniProt Q194T2). The class given is functional, Influenza A virus (A/California/07/2009(H1N1)).

The term EC50 denotes the concentration at which the effect is half-maximal. The term CC50 denotes the concentration that lowers cell viability or growth by half. As a reminder, the IC50 is the point on the concentration scale where inhibition reaches its midpoint. For orientation: AC50 means the concentration at which the activity in the assay is half-maximal.

Calls of active or inactive are those of the source.

DNA topoisomerase, sequence (A0A2S9PM60 whole entry): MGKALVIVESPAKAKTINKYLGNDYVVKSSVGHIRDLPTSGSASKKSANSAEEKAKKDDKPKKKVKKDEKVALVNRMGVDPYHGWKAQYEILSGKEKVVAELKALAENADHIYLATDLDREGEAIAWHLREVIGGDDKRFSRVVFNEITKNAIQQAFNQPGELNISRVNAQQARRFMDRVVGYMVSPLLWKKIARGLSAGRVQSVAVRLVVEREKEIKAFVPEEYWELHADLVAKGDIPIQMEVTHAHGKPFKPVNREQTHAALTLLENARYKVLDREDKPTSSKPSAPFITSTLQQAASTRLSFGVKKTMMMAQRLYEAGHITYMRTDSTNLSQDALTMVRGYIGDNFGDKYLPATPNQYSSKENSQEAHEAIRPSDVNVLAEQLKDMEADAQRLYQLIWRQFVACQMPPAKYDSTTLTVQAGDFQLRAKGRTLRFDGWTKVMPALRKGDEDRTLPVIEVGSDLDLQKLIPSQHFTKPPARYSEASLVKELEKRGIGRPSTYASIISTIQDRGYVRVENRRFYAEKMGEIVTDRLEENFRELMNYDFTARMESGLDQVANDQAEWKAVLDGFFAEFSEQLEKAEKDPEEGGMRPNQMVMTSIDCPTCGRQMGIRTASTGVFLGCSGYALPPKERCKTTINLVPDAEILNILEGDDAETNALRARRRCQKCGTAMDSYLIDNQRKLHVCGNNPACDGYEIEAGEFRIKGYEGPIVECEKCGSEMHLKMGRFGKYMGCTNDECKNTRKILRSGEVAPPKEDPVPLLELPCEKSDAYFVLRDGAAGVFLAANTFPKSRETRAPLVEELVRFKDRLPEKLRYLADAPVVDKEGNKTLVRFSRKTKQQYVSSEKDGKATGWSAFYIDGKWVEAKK
Nonstructural protein 1, sequence (Q194T2 whole entry): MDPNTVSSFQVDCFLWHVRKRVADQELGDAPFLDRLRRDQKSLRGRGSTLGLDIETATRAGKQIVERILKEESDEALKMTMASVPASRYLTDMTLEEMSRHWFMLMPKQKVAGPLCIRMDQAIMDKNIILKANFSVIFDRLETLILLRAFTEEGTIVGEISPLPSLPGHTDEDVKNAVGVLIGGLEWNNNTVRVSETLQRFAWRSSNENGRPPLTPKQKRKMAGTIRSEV

Regarding `O=C(Nc1ccc(Cl)cc1Cl)NC1CCN(S(=O)(=O)c2ccc(F)cc2)CC1`, the EC50 in assay [1] is 7.41 µM (active); in assay [2], 6.58 µM (active); in assay [3], 7.09 µM (active); in assay [4], > 99 µM (inactive); in assay [5], > 99 µM (inactive); in assay [6], 26.9 µM (inactive). Further, the CC50 with MEF was 11.8 µM (active). The IC50 in the assay on HEK293 was 4.36 µM (active).
As to `COc1cccc2c1C(=N)c1c(O)c3c(c(O)c1C2=O)C[C@@](O)(C(C)=O)C[C@@H]3O[C@H]1C[C@H](N)[C@H](O)[C@H](C)O1`, the CC50 in assay [7] was 35.4 µM (active). In addition, the AC50 is 4.44 µM (active) at DNA topoisomerase and 11.5 µM (active) in [9]. Further, the IC50 in assay [8] was 50.8 µM (active); on Nonstructural protein 1 it was 11.2 µM (active).

The values above are taken from ChEMBL document CHEMBL1201862, “PubChem BioAssay data set” (2004).
